# Experimental data reported in PubChem BioAssay AID1963864 (Molecular Pharmacology Branch, DTP, NCI, 2024).
# Tested on: KRAS PDC multicell spheroid viability
# Assay: Anticancer human tumor 521955-158-R6-J3-PDC patient-derived pancreatic carcinoma cell line growth inhibition [KRAS2]
# Details: for IC50: curve of first compound; for viability, T/C: stronger effect = lower value
# How it was run: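 Combination screen of spheroid viability in tumor-cell co-cultures with endothelial (HUVEC) and mesenchymal stem cell stroma. Each agent was tested in half-log dilutions, topping at clinical Cmax or at 10 microM without a known Cmax.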
# [1] = second compound 0.1 µM, first compound 0.000316 µM
# [2] = second compound 0.1 µM, first compound 0.001 µM
# [3] = second compound 0.1 µM, first compound 0.00316 µM
# [4] = second compound 0.1 µM, first compound 0.01 µM
# [5] = second compound 0.1 µM, first compound 0.0316 µM
# [6] = second compound 0.1 µM, first compound 0.1 µM
# [7] = second compound 0.316 µM, first compound 0.000316 µM
# [8] = second compound 0.316 µM, first compound 0.001 µM
# [9] = second compound 0.316 µM, first compound 0.00316 µM
# [10] = second compound 0.316 µM, first compound 0.01 µM
# [11] = second compound 0.316 µM, first compound 0.0316 µM
# [12] = second compound 0.316 µM, first compound 0.1 µM
# [13] = second compound 1 µM, first compound 0.000316 µM
# [14] = second compound 1 µM, first compound 0.001 µM
# [15] = second compound 1 µM, first compound 0.00316 µM
# [16] = second compound 1 µM, first compound 0.01 µM
# [17] = second compound 1 µM, first compound 0.0316 µM
# [18] = second compound 1 µM, first compound 0.1 µM
# [19] = second compound 3.16 µM, first compound 0.000316 µM
# [20] = second compound 3.16 µM, first compound 0.001 µM
# [21] = second compound 3.16 µM, first compound 0.00316 µM
# [22] = second compound 3.16 µM, first compound 0.01 µM
# [23] = second compound 3.16 µM, first compound 0.0316 µM
# [24] = second compound 3.16 µM, first compound 0.1 µM
# [25] = second compound 10 µM, first compound 0.000316 µM
# [26] = second compound 10 µM, first compound 0.001 µM
# [27] = second compound 10 µM, first compound 0.00316 µM
# [28] = second compound 10 µM, first compound 0.01 µM
# [29] = second compound 10 µM, first compound 0.0316 µM
# [30] = second compound 10 µM, first compound 0.1 µM
# 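Note: drug exposure lasted seven days.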
# 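Throughout, for viability, T/C: 100% = DMSO vehicle wells and lower means fewer viable cells.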
Compound,IC50 (second compound 0.1 µM),IC50 (second compound 0.316 µM),IC50 (second compound 1 µM),IC50 (second compound 3.16 µM),IC50 (second compound 10 µM),"viability, T/C [1]","viability, T/C [2]","viability, T/C [3]","viability, T/C [4]","viability, T/C [5]","viability, T/C [6]","viability, T/C [7]","viability, T/C [8]","viability, T/C [9]","viability, T/C [10]","viability, T/C [11]","viability, T/C [12]","viability, T/C [13]","viability, T/C [14]","viability, T/C [15]",other results
CC(C)n1nc(-c2ccc3oc(N)nc3c2)c2c(N)ncnc21 + COc1cc2nc(C)nc(NC(C)c3cc(N)cc(C(F)(F)F)c3)c2cc1OC1CCOC1,0.0975 µM,0.0947 µM,0.092 µM,0.0566 µM,< 0.000316 µM,96.3%,96%,79.9%,73.8%,63.9%,49.1%,101%,85.9%,80%,69.6%,64.6%,47.3%,94.8%,87.1%,74.8%,"viability, T/C [16]: 75.1%; viability, T/C [17]: 63%; viability, T/C [18]: 46.8%; viability, T/C [19]: 64.9%; viability, T/C [20]: 66.8%; viability, T/C [21]: 63.5%; viability, T/C [22]: 60.1%; viability, T/C [23]: 61.6%; viability, T/C [24]: 39.5%; viability, T/C [25]: 32%; viability, T/C [26]: 24.6%; viability, T/C [27]: 68.8%; viability, T/C [28]: 60.7%; viability, T/C [29]: 45.5%; viability, T/C [30]: 39.6%"
Cn1ncnc1[C@H]1c2n[nH]c(=O)c3cc(F)cc(c23)N[C@@H]1c1ccc(F)cc1 + CNCc1ccccc1-c1csc(C(C)Nc2nc(C)nc3cc(OC)c(OC)cc23)c1,> 0.1 µM,> 0.1 µM,> 0.1 µM,< 0.000316 µM,< 0.000316 µM,96.3%,93.7%,85.5%,92.1%,85.9%,90.6%,89.1%,82.2%,91.1%,80%,80.5%,72.2%,68.3%,78.4%,72.2%,"viability, T/C [16]: 74.4%; viability, T/C [17]: 78.4%; viability, T/C [18]: 70.2%; viability, T/C [19]: 0.28%; viability, T/C [20]: 2.23%; viability, T/C [21]: 0.7%; viability, T/C [22]: 0.93%; viability, T/C [23]: 1.22%; viability, T/C [24]: 1.42%; viability, T/C [25]: 0.15%; viability, T/C [26]: 0.17%; viability, T/C [27]: 0.15%; viability, T/C [28]: 0.86%; viability, T/C [29]: 0.21%; viability, T/C [30]: 0.26%"
